According to PubChem BioAssay (NCI):
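Protocol summary: plate cells (96-well), add compound at 5 concentrations, incubate 48 h, interpolate endpoints linearly. GI50 = concentration required for 50% inhibition of growth. Definition used: TGI = concentration required for complete inhibition of growth.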

Columns and labels:
Assay in all cases: DTP human tumour cell line panel, 48 h
[1] = test system: NCI-H23 lung
[2] = test system: NCI-H460 lung
[3] = test system: NCI-H522 lung
[4] = test system: NCI/ADR-RES ovarian
[5] = test system: OVCAR-3 ovarian
[6] = test system: OVCAR-4 ovarian
[7] = test system: OVCAR-5 ovarian
[8] = test system: OVCAR-8 ovarian
[9] = test system: PC-3 prostate
[10] = test system: RPMI-8226 leukemia
[11] = test system: RXF 393 renal
[12] = test system: SF-268 CNS
[13] = test system: SF-295 CNS
[14] = test system: SF-539 CNS
[15] = test system: SK-MEL-2 melanoma
[16] = test system: SK-MEL-28 melanoma
[17] = test system: SK-MEL-5 melanoma
[18] = test system: SK-OV-3 ovarian
[19] = test system: SNB-19 CNS
[20] = test system: SNB-75 CNS
[21] = test system: SR leukemia
[22] = test system: SW-620 colon
[23] = test system: T-47D breast
[24] = test system: TK-10 renal
[25] = test system: U251 CNS
[26] = test system: UACC-257 melanoma
[27] = test system: UACC-62 melanoma
[28] = test system: UO-31 renal

Cc1nc2cc(-n3c(-c4ccc(F)cc4)nc4ccccc4c3=O)ccc2n1Cc1ccccc1
GI50 [1]: 4.23 µM
TGI [1]: 37.6 µM
GI50 [2]: 2.01 µM
TGI [2]: 4.09 µM
GI50 [3]: 1.94 µM
TGI [3]: 6.49 µM
GI50 [4]: 1.85 µM
TGI [4]: 4.56 µM
GI50 [5]: 2.35 µM
TGI [5]: 5.2 µM
GI50 [6]: 2.24 µM
TGI [6]: 5.26 µM
GI50 [7]: 5.48 µM
TGI [7]: 24.1 µM
GI50 [8]: 2.31 µM
TGI [8]: 6.06 µM
GI50 [9]: 1.96 µM
TGI [9]: 5.3 µM
GI50 [10]: 5.58 µM
TGI [10]: 39.7 µM
GI50 [11]: 1.89 µM
TGI [11]: 4.26 µM
GI50 [12]: 2.83 µM
TGI [12]: 10.1 µM
GI50 [13]: 2.32 µM
TGI [13]: 5.73 µM
GI50 [14]: 1.91 µM
TGI [14]: 3.79 µM
GI50 [15]: 2.32 µM
TGI [15]: 8.6 µM
GI50 [16]: 2 µM
TGI [16]: 3.94 µM
GI50 [17]: 2.67 µM
TGI [17]: 9.07 µM
GI50 [18]: 3.55 µM
TGI [18]: 13.8 µM
GI50 [19]: 4.57 µM
TGI [19]: 26.8 µM
GI50 [20]: 1.49 µM
TGI [20]: 3.6 µM
GI50 [21]: 2.7 µM
TGI [21]: > 100 µM
GI50 [22]: 3.16 µM
TGI [22]: 19.2 µM
GI50 [23]: 1.7 µM
TGI [23]: 4.22 µM
GI50 [24]: 2.73 µM
TGI [24]: 7.17 µM
GI50 [25]: 2.19 µM
TGI [25]: 5.18 µM
GI50 [26]: 2.64 µM
TGI [26]: 6.68 µM
GI50 [27]: 2.8 µM
TGI [27]: 9.79 µM
GI50 [28]: 2.15 µM
TGI [28]: 8.42 µM
